Holding throughout (format): cell-based
For test [1], the target named is T1, SP174 receptor (Homo sapiens, UniProt Q9BPV8).
T1 sequence (Q9BPV8 1-333 isoform Q9BPV8-2): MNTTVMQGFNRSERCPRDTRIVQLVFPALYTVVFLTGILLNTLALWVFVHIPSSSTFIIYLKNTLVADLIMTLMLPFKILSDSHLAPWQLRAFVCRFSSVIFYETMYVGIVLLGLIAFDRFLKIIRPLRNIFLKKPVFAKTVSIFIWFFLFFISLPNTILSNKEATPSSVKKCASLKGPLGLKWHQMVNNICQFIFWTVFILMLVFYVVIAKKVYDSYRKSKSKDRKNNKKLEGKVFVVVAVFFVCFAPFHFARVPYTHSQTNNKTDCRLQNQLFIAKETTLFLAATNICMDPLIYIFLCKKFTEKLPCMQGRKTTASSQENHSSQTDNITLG
Description: FLIPR assay, HEK293f cells transiently co-transfected with SP174 receptor and chimera G protein Gq/i3. Also on record: expressed in transfected cells; host or cells: HEK293f cells (G-418-resistant HEK293), transient, lipofectamine. The settings on record: Example 1; for specific activity on SP174 transfected cells (FLIPR screen of ligand collection): versus vector/Gq/i3 negative control; for EC50: HEK293f cells co-transfected with SP174 and Gq/i3. The text has this:
SP174 receptor cDNA was subcloned into the pcDNA3.1 expression vector (Invitrogen) and transiently co-transfected with chimera G protein Gq/i3 into HEK293f cells using lipofectamine (Gibco-BRL). HEK293f cells are the HEK293 cells which are resistant to G-418. Chimera G protein Gq/i3 was constructed by replacing the C-terminus five amino acid residues of human Gqa with the five amino acid residue of human Gi3a (Conklin et al., Nature, 363, p274-276). pcDNA 3.1 vector DNA was also co-transfected with chimera G protein Gq/i3 as a negative control. The transfected cells were seeded into 96 well plates and incubated overnight at 37° C. in a tissue culture incubator. The growth medium was aspirated and replaced with […] of loading medium (DMEM containing 1% FBS, […]/10% pluronic acid and 2.5 mM Probenecid) and incubated for 1 hour at 37° C. The cells were subsequently washed 3 times with Hank's BSS buffer containing 20 mM HEPES, 2.5 mM Probenecid, and 0.1% BSA using the gentle setting in a Denley cell washer (Denley Instruments). The washed cells were placed in a Fluorometric Imaging Plate Reader (FLIPR) and changes in cellular fluorescence recorded after the addition of various dilutions of tissue extract fractions.
EC50 values for ADP, ADPβS, 2-MeS-ADP, 2-MeS-ATP, 2-Cl-ATP and IDP were […], respectively, and the order of potency was 2-MeS-ATP=2-MeS-ADP>ADP=ADPβS>IDP.
The SP174 receptor assay was similar as Example 1 a. The SP174 receptor cDNA was subcloned into the pcDNA3.1 expression vector (Invitrogen) and transiently co-transfected with Gq/i3 into HEK293f cells using lipofectamine (Gibco-BRL). pcDNA 3.1 vector DNA was also co-transfected with Gq/i3 as a negative control. A variety of nucleotides, RBI small moleculars, and in-house peptide collection were screened. Twelve compounds were identified to be the agonists of the SP174 receptor. Their fluorecence change with different amount of the compounds were detected, the data were processed using Prism software to obtain their EC50 value. Other agonists can be identified using similar approaches. To identify antagonists of the SP174 receptor, two-addition approach was adapted. First, the compounds to be screened were added to the SP174 receptor transfected cells, after 5 minutes 100 nM of ADP were added as second addition and the fluorescence changes were recorded. In this assay antagonists inhibit the fluorecence signal of ADP.

Test [2] deals with T1, SP174 receptor. Description: SP174 receptor ligand identification, Ca2+ FLIPR in transfected mammalian cells (description section). Set-up: expressed in transfected cells. The settings on record: values given in the description; SP174 in pcDNA3.1 transfected into mammalian cells; read-out: EC50 for SP174 (agonists). How it is done:
(§1) In order to identify SP174 receptor ligands the SP174 open reading frame was subcloned into the pcDNA3.1 expression vector under the control of the CMV promoter and transfected into mammalian cells. After allowing two days for receptor expression, the transfected cells were seeded into 96 well plates, loaded with the Ca^2+ sensitive Fluo-3AM dye and challenged with various compounds. The peak increments in Ca^2+ evoked by the test compounds were measured using the Fluorometric Imaging Plate Reader (FLIPR) system.

In test [3] the target is T1, SP174 receptor. Description: cAMP assay (inhibition of adenylyl cyclase) in SP174 receptor cells. Set-up: expressed in transfected cells. How it is done:
as §1, with “system. The endogenous ligand of the SP174 receptor was purified from rat spinal cords using a series of chromatography steps and its structure was identified as being ADP by Mass spectroscopy. […] In addition to ADP, other agonists were also identified for SP174.” for “system.”
The SP174 receptor cDNA was stably transfected into HEK293f cells according standard procedures. The SP174 receptor stable cell line and wild type cell grown on 12-well plates were incubated for 2 hr with 200 μl of medium plus 5 μCi of [3H]adenine/ml. Then 50 μl of Hepes (250 mM, pH 7.5, 50 μM Forskolin, 200 μM IBMX) with the compound to be screened is added to the cells and incubated for 10 minutes at 37° C. Incubations were terminated by addition of 0.8 ml of 5% trichloroacetic acid. [^3H]cAMP was purified using Dowex and alumina chromatography as previously described (Harden et al., Mol. Pharmacol. 21:570-580, 1982).
(In general: cAMP levels reflect the balance of adenylyl cyclase and phosphodiesterase activity.)

The structures appear in SMILES notation.

Take `Nc1nc(Cl)nc2c1ncn2[C@@H]1O[C@H](COP(=O)(O)OP(=O)(O)O)[C@@H](O)[C@H]1O` [2-Cl-ADP]: at SP174 receptor [1], the “specific activity on SP174 transfected cells (FLIPR screen of ligand collection)” value (“specific activity” for short) is reported as “specifically active”.

Broadly, the EC50 is the concentration giving half of the maximal effect. Regarding `Nc1nc(Cl)nc2c1ncn2[C@@H]1O[C@H](COP(=O)(O)OP(=O)(O)OP(=O)(O)O)[C@@H](O)[C@H]1O` [2-Cl-ATP], the EC50 is 8 nM at SP174 receptor [2] and 94 nM at SP174 receptor [1].

For the compound `CSc1nc(N)c2ncn([C@@H]3O[C@H](COP(=O)(O)OP(=O)(O)O)[C@@H](O)[C@H]3O)c2n1` [2-MeS-ADP], the EC50 at SP174 receptor [2] was found to be 0.32 nM; at SP174 receptor [1] it was 21 nM. In addition, the “specific activity” value on SP174 receptor [1] is listed as “specifically active”.

`CSc1nc(N)c2ncn([C@@H]3O[C@H](COP(=O)(O)OP(=O)(O)OP(=O)(O)O)[C@@H](O)[C@H]3O)c2n1` [2-MeS-ATP]: the EC50 on SP174 receptor [2] is 8 nM; at SP174 receptor [1], 97 nM.

For `Nc1ncnc2c1ncn2[C@@H]1O[C@H](COP(=O)(O)OP(=O)(O)O)[C@@H](O)[C@H]1O` [ADP], the EC50 on SP174 receptor [2] amounted to 1.6 nM. Besides, the “mode of activation of the SP174 receptor” value on SP174 receptor [3] was “inhibition of adenylyl cyclase”. In addition, on SP174 receptor [1], the EC50 worked out at 80 nM and the “specific activity” value was “activate specifically”.

Regarding `Nc1ncnc2c1ncn2[C@@H]1O[C@H](COP(=O)(O)OP(O)(O)=S)[C@@H](O)[C@H]1O` [ADPβS], the EC50 worked out at 8 nM on SP174 receptor [2] and 43 nM on SP174 receptor [1]. Besides, the “specific activity” value at SP174 receptor [1] was “specifically active”.

On to `Nc1ncnc2c1ncn2[C@@H]1O[C@H](COP(=O)(O)OP(=O)(O)OP(=O)(O)OC[C@H]2O[C@@H](n3cnc4c(N)ncnc43)[C@H](O)[C@@H]2O)[C@@H](O)[C@H]1O` [AP3A], for which, at SP174 receptor [2], the 50% effective concentration (EC50) was 8 nM. Further, the “specific activity” value at SP174 receptor [1] was “specifically active”.

Take `Nc1ncnc2c1ncn2[C@@H]1O[C@H](COP(=O)(O)OP(=O)(O)OP(=O)(O)O)[C@@H](O)[C@H]1O` [ATP]: the EC50 on SP174 receptor [2] was determined as 0.32 nM.

For the compound `Nc1ncnc2c1ncn2[C@@H]1O[C@H](COP(=O)(O)OP(=O)(O)OP(O)(O)=S)[C@@H](O)[C@H]1O` [ATPγS], the EC50 on SP174 receptor [2] came out at 8 nM.

On to `O=c1[nH]cnc2c1ncn2[C@@H]1O[C@H](COP(=O)(O)OP(=O)(O)O)[C@@H](O)[C@H]1O` [IDP], for which the EC50 was determined as 200 nM at SP174 receptor [2] and 196 nM on SP174 receptor [1].
